Measured values reported in patent publication US20250228241A1, “P[…] COMPOUND OR SALT THEREOF, PEST CONTROL AGENT CONTAINING SAID COMPOUND AS ACTIVE INGREDIENT, AND PEST CONTROL METHOD” (NIHON NOHYAKU CO., LTD., priority 2021, published 2025).

What was measured:
Type in all cases: in vivo
[1] = test system: green peach aphid (Myzus persicae); assay: Control value test against the green peach aphid (foliar spray on Chinese cabbage); details: 500 ppm spray on stems and leaves of Chinese cabbage, 6th day after spray
From the text: Chinese cabbage was planted in plastic pots with a diameter of 8 cm and a height of 8 cm to breed green peach aphids, and the number of the infesting aphids in each pot was investigated. The present inventive compound was dispersed in water and diluted to a 500 ppm chemical solution, and the chemical solution was sprayed on the stems and leaves of the Chinese cabbage plants planted in the pots. After air drying, the pots were kept in a greenhouse. On the 6th day after the spray of the chemical solution, the number of the green peach aphids infesting on each Chinese cabbage plant was counted and the control value was calculated on the following equation, whereby the effect was judged according to the criterion below.
The Comparative test compound was tested in the same way, and the control value was calculated and judged.
[formula] • Ta: number of infestants before spraying in the treated group, • T: number of infestants after spraying in the treated group, • Ca: number of infestants before spraying in the untreated group, • C: number of infestants after spraying in the untreated group.
• A: Control value 100% • B: Control value 99-90% • C: Control value 89-80% • D: Control value 79-50%

[2] = test system: smaller brown planthopper (Laodelphax striatellus); assay: Insecticidal test against the smaller brown planthopper (rice seedling immersion); details: 500 ppm, rice seedling immersed 30 seconds, third instar nymphs, eight days after
From the text: The present inventive compound was dispersed in water to adjust the concentration to 500 ppm and a rice seedling was immersed therein for 30 seconds; after air dried, the seedling was put in a test tube, 10 third instar nymphs were inoculated and the test tube was sealed with a cotton plug. Eight days after, the alive and dead insects were counted to calculate the corrected mortality according to the following equation and the insecticidal effect was judged according to the criterion shown below.
(§1) The Comparative test compound was tested in the same way, and the corrected mortality was calculated and judged.
(§2) [formula] • Criterion: A: Corrected mortality 100% • B: Corrected mortality 99%-90% • C: Corrected mortality 89%-80% • D: Corrected mortality 79%-50%

[3] = test system: diamond back moth (Plutella xylostella); assay: Insecticidal test against the diamond back moth (Chinese cabbage seedling with eggs, immersion); details: 500 ppm, seedling with eggs immersed about 30 seconds, 25° C., six days after immersion
Method: The adult diamond back moths were released and allowed to oviposit on a Chinese cabbage seedling. Two days after the release, the seedling having the eggs deposited thereon was immersed for about 30 seconds in a liquid chemical prepared by diluting a preparation containing the present inventive compound as an active ingredient to adjust the concentration to 500 ppm. After air dried, it was allowed to stand in a room thermostatted at 25° C. Six days after the immersion, the alive insects were counted. The corrected mortality was calculated according to the following equation and the insecticidal effect was judged according to the criterion shown below. The test was carried out with triplicate groups.
as §1, §2

[4] = test system: common cutworm (Spodoptera litura); assay: Insecticidal test against the common cutworm (cabbage leaf dip); details: 500 ppm, cabbage leaf dipped about 30 seconds, second-instar larvae, 25° C., eight days after inoculation
Method: A piece of cabbage leaf (cultivar; Shikidori) was dipped for about 30 seconds in a chemical solution prepared by diluting a preparation containing the present inventive compound as an active ingredient to adjust the concentration to 500 ppm. After air dried, it was placed in a plastic Petri dish with a diameter of 9 cm and inoculated with second-instar larvae of common cutworm, after which the dish was closed and then allowed to stand in a room thermostatted at 25° C. Eight days after the inoculation, the number of the alive insects were counted. The corrected mortality was calculated according to the following equation and the insecticidal effect was judged according to the following criterion. The test was carried out with triplicate groups of 10 insects.
as §1, §2

[5] = test system: Western honeybees (Apis mellifera); assay: Safety test for the Western honeybee (oral acute toxicity test)
Method: Seven to ten adult Western honeybees (Apis mellifera) were released in a plastic cage (8 cm×12 cm×20 cm), and after fasting for 2 hours, they were oral administered, using a 1.5 ml microtube, with a 50% sucrose solution as a test bait containing a chemical solution of a predetermined concentration. Four hours after the administration, the test bait was taken out, and the amount of the compound taken per animal was calculated from the remaining amount. At the same time, the animals were fed with a sufficient amount of 50% sucrose solution, maintained at 25° C., H55-75%, 16L8D. The numbers of dead and abnormal insects were counted after 24, 48 and 96 hours to calculate the median lethal dose (LD50 value). The untreated group was fed with a 50% sucrose solution […] and was maintained under the same conditions as the chemical-treated group.

Structure (SMILES) | control value (activity class) [1] | corrected mortality (activity class) [2] | corrected mortality (activity class) [3] | corrected mortality (activity class) [4] | improvement in safety for the Western honeybee compared with the comparative compound ([5]; from oral LD50 values after 96 hours) | LD50 value for one adult honeybee ([5]; oral, after 96 hours, per adult honeybee)
C[C@H](NC(=O)c1cc(C(F)(F)F)cc(C(F)(F)F)c1)c1ncnn1-c1ncccn1 [comparative compound, (S)—N-(1-(1-(pyrimidin-2-yl)-1H-1,2,4-triazol-5-yl)ethyl)-3,5-bis(trifluoromethyl)benzamide, reference compound] | B or higher | B or higher | B or higher | B or higher |  | 
C[C@H](NC(=O)c1cc(C(F)(F)F)cc(C(F)(F)F)c1)c1ncnn1-c1cc(C(F)(F)F)ncn1 [present inventive compound, (S)—N-(1-(1-(6-trifluoromethylpyrimidin-4-yl)-1H-1,2,4-triazol-5-yl)ethyl)-3,5-bis(trifluoromethyl)benzamide] | B or higher | B or higher | B or higher | B or higher | more than 200 times | 2.04 µg
